# Data as given in patent publication US8906826B2, “Herbicidal compositions comprising 4-amino-3-chloro-5-fluoro-6-(4-chloro-2-fluoro-3-methoxyphenyl) pyridine-2-carboxylic acid or a derivative thereof and imidazolinones” (Dow AgroSciences, LLC, priority 2012, dated 2014).
# Assays:
# LEFCH = experiment: In-water applied, transplanted paddy rice weeds (Example II); format: in vivo, Leptochloa chinensis (L.) Nees
# Procedure: Weed seeds or nutlets of the desired test plant species were planted in puddled soil (mud) prepared by mixing a shredded, non-sterilized mineral soil (50.5 percent silt, 25.5 percent clay, and 24 percent sand, with a pH of about 7.6 and an organic matter content of about 2.9 percent) and water at a 1:1 volumetric ratio. The prepared mud was dispensed in 365 mL aliquots into 16-ounce (oz.) non-perforated plastic pots with a surface area of 86.59 square centimeters (cm^2) leaving a headspace of 3 centimeters (cm) in each pot. Mud was allowed to dry overnight prior to planting or transplanting. Rice seeds were planted in Sun Gro MetroMix® 306 planting mixture, which typically has a pH of about 6.0 to about 6.8 and an organic matter content of about 30 percent, in plastic plug trays. Seedlings at the second or third leaf stage of growth were transplanted into 860 mL of mud contained in 32-oz. non-perforated plastic pots with a surface area of 86.59 cm^2 4 days prior to herbicide application. The paddy was created by filling the headspace of the pots with 2.5 to 3 cm of water. When required to ensure good germination and healthy plants, a fungicide treatment and/or other chemical or physical treatment was applied. The plants were grown for 4-22 days in a greenhouse with an approximate 14 h photoperiod which was maintained at about 29° C. during the day and about 26° C. during the night. Nutrients were added as Osmocote® (19:6:12, N:P:K+minor nutrients) at 2 g per 16-oz. pot and 4 g per 32-oz. pot. Water was added on a regular basis to maintain the paddy flood, and supplemental lighting was provided with overhead metal halide 1000-Watt lamps as necessary. The plants were employed for testing when they reached the first through fourth true leaf stage.
# Treatments consisted of the acid or esters of 4-amino-3-chloro-5-fluoro-6-(4-chloro-2-fluoro-3-methoxy-phenyl)pyridine-2-carboxylic acid (compound A) each formulated as an SC and various herbicidal components alone and in combination. Forms of compound A were applied on an acid equivalent basis. […]
# Treatment requirements for each compound or herbicidal component were calculated based upon the rates being tested, the concentration of active ingredient or acid equivalent in the formulation, an application volume of 2 mL per component per pot, and an application area of 86.59 cm^2 per pot.
# For formulated compounds, a measured amount was placed in an individual 100 or 200 mL glass vial and was dissolved in a volume of 1.25% (v/v) Agri-Dex® crop oil concentrate to obtain application solutions. […]
# CENMA = experiment: Postemergence herbicidal activity in forage crops (Example IV); format: in vivo, Centaurea biebersteinii DC.; settings: after approximately 21 days
# Procedure: Seeds or root cuttings of the desired test plant species were planted in Sun Gro MetroMix® 306 planting mixture, which typically has a pH of about 6.0 to about 6.8 and an organic matter content of about 30 percent, in plastic pots with a surface area of 126.6 square centimeters (cm^2). When required to ensure good germination and healthy plants, a fungicide treatment and/or other chemical or physical treatment was applied. The plants were grown for 14-60 days in a greenhouse with an approximate 14 hour photoperiod which was maintained at about 28° C. during the day and about 24° C. during the night. Nutrients and water were added on a regular basis and supplemental lighting was provided with overhead metal halide 1000-Watt lamps as necessary. The plants were employed for testing when they reached the BBCH13 to BBCH23 leaf stage.
# Treatments consisted of the benzyl ester of 4-amino-3-chloro-5-fluoro-6-(4-chloro-2-fluoro-3-methoxy-phenyl)pyridine-2-carboxylic acid (Compound A), formulated as a SC (suspension concentrate), and a second herbicide alone and in combination.
# A measured aliquot of Compound A was placed in a 25 milliliter (mL) glass vial and diluted in a volume of 1.25% (v/v) Agri-Dex® crop oil concentrate to obtain stock solutions. Compound requirements are based upon a 12 mL application volume at a rate of 187 liters per hectare (L/ha). Spray solutions of the second cereal herbicide and experimental compound mixtures were prepared by adding the stock solutions to the appropriate amount of dilution solution to form 12 mL spray solution with active ingredients in two- and three-way combinations. Formulated compounds were applied to the plant material with an overhead Mandel track sprayer equipped with an 8002E nozzle calibrated to deliver 187 L/ha over an application area of 0.503 square meters (m^2) at a spray height of 18 inches (46 cm) above average plant canopy. Control plants were sprayed in the same manner with the solvent blank.
# The treated plants and control plants were placed in a greenhouse as described above and watered by sub-irrigation to prevent wash-off of the test compounds. After approximately 21 days, the condition of the test plants, as compared with that of the control plants, was determined visually and scored on a scale of 0 to 100 percent where 0 corresponds to no injury and 100 corresponds to complete kill.
# Colby's equation was used to determine the herbicidal effects expected from the mixtures (Colby, S. R. 1967. Calculation of the synergistic and antagonistic response of herbicide combinations. Weeds 15:20-22.).
# The following equation was used to calculate the expected activity of mixtures containing two active ingredients, A and B: Expected=A+B−(A×B/100)
smiles,measurement,setting,value
"CCc1cnc(C2=NC(C)(C(C)C)C(=O)N2)c(C(=O)O)c1.N (racemic) [Imazethapyr ammonium, ammonium (±)-2-[4,5-dihydro-4-methyl-4-(1-methylethyl)-5-oxo-1H-imidazol-2-yl]-5-ethyl-3-pyridinecarboxylate]",Visual Weed Control (%) - 25 DAA LEFCH Obs,LEFCH; Imazethapyr ammonium 8.75 gae/ha,0%
same,Visual Weed Control (%) - 25 DAA LEFCH Obs,LEFCH; Imazethapyr ammonium 17.5 gae/ha,0%
same,Visual Weed Control (%) - 25 DAA LEFCH Obs,LEFCH; Imazethapyr ammonium 35 gae/ha,95%
"Cc1cnc(C2=NC(C)(C(C)C)C(=O)N2)c(C(=O)O)c1.N (racemic) [Imazapic ammonium, ammonium (±)-2-[4,5-dihydro-4-methyl-4-(1-methylethyl)-5-oxo-1H-imidazol-2-yl]-5-methyl-3-pyridinecarboxylic acid]",CENMA Obs,CENMA; Imazapic ammonium 8.75 gae/ha,0%
same,CENMA Obs,CENMA; Imazapic ammonium 17.5 gae/ha,0%
"COc1c(Cl)ccc(-c2nc(C(=O)OCc3ccccc3)c(Cl)c(N)c2F)c1F [Compound A Benzyl Ester, benzyl ester of 4-amino-3-chloro-5-fluoro-6-(4-chloro-2-fluoro-3-methoxy-phenyl)pyridine-2-carboxylic acid]",Visual Weed Control (%) - 25 DAA LEFCH Obs,LEFCH; Compound A Benzyl Ester 8.75 gae/ha,0%
same,CENMA Obs,CENMA; Compound A Benzyl Ester 4.4 gae/ha,70%
same,CENMA Obs,CENMA; Compound A Benzyl Ester 8.8 gae/ha,85%
same,CENMA Obs,CENMA; Compound A Benzyl Ester 17.5 gae/ha,95%
